Measurements published in PubChem BioAssay AID1508591.

Conditions: rat; liver microsomes; pH 7.4; 15.0 min; 1.0 µM

half-life	Compound
13 min	COc1cccc(CNc2ccc(S(=O)(=O)Nc3cnc4ccccc4c3)cc2)c1O
15 min	Clc1ccc(Nc2nc(-c3ccncc3)nc3ccccc23)cc1Cl
7 min	CC1=C(C(=O)NCc2ccccc2)C(c2ccccc2Br)N=C(Nc2nc3ccccc3o2)N1 (centres undefined)
4.4 min	Cc1cccc(C(=O)N2CCc3cc(-c4nc(NC(=O)Cc5ccc6c(c5)OCO6)sc4C)ccc32)c1
> 30 min	CN(C)CCNC(=O)c1nc2nc(-c3ccccc3)c(-c3cccc(Cl)c3)cc2n1C
6.13 min	O=c1c(O)c(-c2ccc(O)cc2)oc2cc(O)cc(O)c12
1.7 min	O=C(Nc1cccc(Cc2ccccc2)n1)c1ccc(-c2cccc([N+](=O)[O-])c2)o1
3.5 min	COc1cccc(CNc2ccc([S+](=O)([O-])Nc3cc4ccccc4s3)cc2)c1O
2.2 min	COc1ccc(-n2c(C)c(C(C)=O)c3cc(O)ccc32)cc1
> 30 min	Cc1cc(NS(=O)(=O)c2ccc(NC(=O)Cc3ccc(Cl)c(F)c3)cc2)no1
5.7 min	O=C(Nc1nc(-c2ccccc2)cs1)c1ccncc1NS(=O)(=O)c1c(F)cc(F)cc1F
8.05 min	O=C(Cc1n[nH]c(=O)c2ccccc12)NC1CCCc2c1[nH]c1c(Cl)cccc21 (centres undefined)
1.58 min	COc1ccccc1CNS(=O)(=O)c1ccc(-c2cnc(C3CC3)o2)cc1
3.38 min	COc1ccc(C)cc1NS(=O)(=O)c1ccc(-c2cnc(C3CC3)o2)cc1
> 30 min	O=c1ncn2nc(Sc3ccc(F)cc3F)ccc2c1-c1c(Cl)cccc1Cl
> 30 min	COc1cc(-c2nc(Nc3ccc(F)c(F)c3)c3ccccc3n2)ccn1
> 30 min	C[C@@]12O[C@@H](C[C@]1(O)CO)n1c3ccccc3c3c4c(c5c6ccccc6n2c5c31)CNC4=O
9.11 min	Cc1ccc(C)c(NC2=C(c3ccc(C(F)(F)F)cc3)C(=O)c3ccccc32)c1
7.5 min	O=S(=O)(Nc1nccs1)c1ccc(NCc2ccc(Cl)cc2O)cc1
4.4 min	CC(=O)c1c(C)[nH]c(C(=O)Nc2cccc([S+](=O)([O-])Nc3ccccc3C)c2)c1C
12 min	Cc1ccc(-c2cc(C(=O)NCc3cnn(C)c3C)c3cc(Br)ccc3n2)cc1
6.99 min	Clc1ccccc1-c1nc(NCc2ccc(-c3cccnc3)cc2)c2ccccc2n1
4.2 min	CC(=O)c1c(C)[nH]c(C(=O)Nc2cccc([S+](=O)([O-])Nc3ccccc3)c2)c1C
> 30 min	Cc1cccc(-c2[nH]c(C(C)(C)C)nc2-c2ccc3nccnc3c2)n1

Second part, the molecule before the results:

Compound	half-life
O=S(=O)(c1ccccc1)N1CCCCC1CCc1ccccc1 (centres undefined)	2.32 min
CCOC(=O)N1CCc2c(sc(NCc3ccc(N(C)C)cc3)c2C(=O)Nc2ccc(OC)cc2)C1	> 30 min
COc1ccc(-c2nc(-c3c(C)noc3C)cc3c2cc(C)n3CCN(C)C)cc1OC	> 30 min
Cc1nc2ccc(NC(=O)c3cc(S(=O)(=O)N(C)c4ccccc4)ccc3Cl)cc2s1	1.55 min
CN(C)c1cccc(-c2nnc(N3CCC(C(N)=O)CC3)s2)c1	15.7 min
C=C1C(=O)OC2C1CCC(C)C1(O)C=CC(=O)C21C (centres undefined)	> 30 min
COc1ccc(-c2csc(N3CCC(C(N)=O)CC3)n2)cc1	4.68 min
CC(C)CCNC(=O)[C@H](CC(C)C)NC(=O)[C@H]1O[C@@H]1C(=O)O	> 30 min
COC(=O)c1ccnc(-c2cc(C(=O)Nc3ccc(C4(N)CC4)cc3)ccn2)c1	> 30 min
COc1ccc(C(=O)N2CCCC(c3nn(-c4ccc(OC)cc4)c(=O)[nH]3)C2)cc1 (centres undefined)	> 30 min
O=S(=O)(c1ccc(Cl)cc1)c1ccccn1	> 30 min
COc1ccc(NC(=O)c2cccnc2)cc1S(=O)(=O)Nc1ccc(Br)cc1	21 min
c1ccc(C2=Nn3c(nnc3-c3ccncc3)SC2)cc1	9.1 min
Cc1cc(Br)ccc1NC(=O)C(NS(=O)(=O)c1cccs1)c1ccccc1 (centres undefined)	7.26 min
COc1ccc(Nc2cc3c(nc2OC)nc(CCc2ccccc2)n3C)cn1	19.5 min
Cc1cccc2nc(-c3ccccn3)c(Nc3ccc(F)cc3)n12	6.75 min
O=C(c1ccc2c(c1)ncn2-c1ccc(Cl)cc1)N1CCCCC1	9.8 min
Cc1ccc(S(=O)(=O)Nc2ncccc2C(=O)Nc2nc(-c3ccccc3)cs2)cc1	14 min
COc1ccccc1CNc1ccc(N2CCCCC2)cc1	2.19 min
N#Cc1ccc(NS(=O)(=O)c2ccc(NC(=O)Cc3ccc(F)c(Cl)c3)cc2)cc1	> 30 min
COc1cc(Cl)c(C)cc1NC(=O)CSc1ncc(S(=O)(=O)c2ccc(C(C)(C)C)cc2)c(=O)[nH]1	6.38 min
CCc1ccc(-n2nnc(-c3nsc(NC(=O)c4ccccc4Cl)n3)c2C)cc1	10.9 min
Cc1ccc(-c2nnc(Nc3ccc(Br)cc3)c3ccccc23)cc1S(=O)(=O)N1CCN(C)CC1	1.31 min
CCOc1ccc(CN2C(=O)c3ccccc3Sc3ccc(C(=O)NC4CCC(C)CC4)cc32)cc1 (centres undefined)	3.52 min
CC(C)NC(=O)c1nc(-c2ccc(Cl)nc2)c2ccccn12	19.6 min

Compound	half-life
CCN(CCO)CCCOc1ccc2c(Nc3cc(CC(=O)Nc4cccc(F)c4)[nH]n3)ncnc2c1	1.88 min
O=C(c1ccc2c(c1)ncn2-c1cccc(C(F)(F)F)c1)N1CCCCC1	4.4 min
CCOc1cc2ncc(C#N)c(Nc3ccc(OCc4ccccn4)c(Cl)c3)c2cc1NC(=O)C=CCN(C)C	> 30 min
NC(=O)C1CCN(c2cc(-c3ccc4c(c3)OCCCO4)ncn2)CC1	> 30 min
Cc1ccnc(NC(=S)N2CCN(c3cccc(Cl)c3Cl)CC2)c1	2.4 min
CC(C)c1cc(C(C)C)c(CC(=O)NS(=O)(=O)Oc2c(C(C)C)cccc2C(C)C)c(C(C)C)c1	28.2 min
CCCN1C(CC(C)C)=NS(=O)(=O)c2cc(NC(=O)c3ccco3)ccc21	9.21 min
CC(=O)c1c(C)[nH]c(C(=O)Nc2ccc(C)c(S(=O)(=O)N3CCCCCC3)c2)c1C	1.9 min
Cc1cccc(C)c1Nc1c(-c2cccs2)nc2ncccn12	3.72 min
O=C(CCCN1CCC(O)(c2cccc(C(F)(F)F)c2)CC1)c1ccc(F)cc1	20.5 min
Cn1c(CN2CCCC2)nc2cc(NC(=O)COc3ccc(Cl)cc3)ccc21	8.4 min
Cc1cc(C)nc(NC(=S)N2CCN(Cc3cccc(C(F)(F)F)c3)CC2)c1	> 30 min
Cn1ccc2c(C(=O)NCc3cccnc3)nc(-c3ccccc3C#N)cc21	5.52 min
Cc1ccc(S(=O)(=O)Nc2cnccc2C(=O)Nc2nc(-c3cc(Br)cs3)cs2)cc1	> 30 min
Fc1cc(Nc2nc(-c3ccncc3)nc3ccccc23)ccc1-c1cccnc1	17 min
COC(=O)C1=C(C)NC(=O)CC1C(=O)Nc1ccc(Cl)cc1 (centres undefined)	21 min
COc1cccc(CNc2ccc(S(=O)(=O)Nc3cccs3)cc2)c1O	1.6 min
COc1ccc(C(=O)N[C@@H]2CCC[C@@H]2C(=O)N2CCC(Cc3ccccc3)CC2)cc1	2.66 min
Cc1ccc(S(=O)(=O)Nc2ccccc2Nc2nc(-c3ccccc3)cs2)cc1	1.7 min
C=CCc1cccc(CNc2ccc(S(=O)(=O)Nc3nccs3)cc2)c1O	19 min
COc1cc2c(cc1OCCCN1CCCC1)N=C(N)C21CCC1	> 30 min
COc1ccccc1OCCNCC(O)COc1cccc2[nH]c3ccccc3c12 (centres undefined)	1.52 min
CCCCn1cnc2cc(NCc3ccc(OCC)cc3)ccc21	10.3 min
COC(=O)CNC(=O)c1nc(-c2ccc(Cl)nc2)c2cnccn12	16.4 min
CCN1CCN(c2ccc(Nc3ccc(-c4ccc(C(N)=O)cc4)n4ncnc34)cc2)CC1	> 30 min
